What was measured:
Assay in all cases: relative viability (nuclei count vs DMSO), 5 days (fraction); higher = more cells survive
PAC-1 + Alpelisib = compound: C=CCc1cccc(/C=N/NC(=O)CN2CCN(Cc3ccccc3)CC2)c1O [PAC-1] + Cc1nc(NC(=O)N2CCC[C@H]2C(N)=O)sc1-c1ccnc(C(C)(C)C(F)(F)F)c1 [Alpelisib] (partner 2 µM)
Summary of the method: (§1)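 Each reported value is a median over duplicate plates. It expresses relative viability: treated-well nuclei count divided by vehicle-well nuclei count. Lung cancer cell lines in 1536-well plates were dosed by pin tool a day after seeding, alone with one drug or with a fixed anchor-drug dose plus five library-drug doses (not always all listed) in √10 steps, and nuclei were counted after 5 days.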

PAC-1 + Tozasertib = compound: C=CCc1cccc(/C=N/NC(=O)CN2CCN(Cc3ccccc3)CC2)c1O [PAC-1] + Cc1cc(Nc2cc(N3CCN(C)CC3)nc(Sc3ccc(NC(=O)C4CC4)cc3)n2)n[nH]1 [Tozasertib] (partner 0.1 µM)
Summary of the method: as §1

PAC-1 + Crizotinib = compound: C=CCc1cccc(/C=N/NC(=O)CN2CCN(Cc3ccccc3)CC2)c1O [PAC-1] + C[C@@H](Oc1cc(-c2cnn(C3CCNCC3)c2)cnc1N)c1c(Cl)ccc(F)c1Cl [Crizotinib] (partner 1 µM)
Summary of the method: as §1

PAC-1 + OSI-027 = compound: C=CCc1cccc(/C=N/NC(=O)CN2CCN(Cc3ccccc3)CC2)c1O [PAC-1] + COc1cccc2cc(-c3nc([C@H]4CC[C@H](C(=O)O)CC4)n4ncnc(N)c34)[nH]c12 [OSI-027] (partner 0.5 µM)
Summary of the method: as §1

PAC-1 + Foretinib = compound: C=CCc1cccc(/C=N/NC(=O)CN2CCN(Cc3ccccc3)CC2)c1O [PAC-1] + COc1cc2c(Oc3ccc(NC(=O)C4(C(=O)Nc5ccc(F)cc5)CC4)cc3F)ccnc2cc1OCCCN1CCOCC1 [Foretinib] (partner 0.25 µM)
Summary of the method: as §1

Row | Cell Line | relative viability (PAC-1 + Alpelisib; first compound 0.02 µM) | relative viability (PAC-1 + Alpelisib; first compound 0.06325 µM) | relative viability (PAC-1 + Alpelisib; first compound 0.2 µM) | relative viability (PAC-1 + Alpelisib; first compound 2 µM) | relative viability (PAC-1 + Tozasertib; first compound 0.02 µM) | relative viability (PAC-1 + Tozasertib; first compound 0.06325 µM) | relative viability (PAC-1 + Tozasertib; first compound 0.2 µM) | relative viability (PAC-1 + Tozasertib; first compound 2 µM) | relative viability (PAC-1 + Crizotinib; first compound 0.02 µM) | relative viability (PAC-1 + Crizotinib; first compound 0.06325 µM) | relative viability (PAC-1 + Crizotinib; first compound 0.2 µM) | relative viability (PAC-1 + Crizotinib; first compound 2 µM) | relative viability (PAC-1 + OSI-027; first compound 0.02 µM) | relative viability (PAC-1 + OSI-027; first compound 0.06325 µM) | relative viability (PAC-1 + OSI-027; first compound 0.2 µM) | relative viability (PAC-1 + OSI-027; first compound 2 µM) | relative viability (PAC-1 + Foretinib; first compound 0.02 µM) | relative viability (PAC-1 + Foretinib; first compound 0.06325 µM) | relative viability (PAC-1 + Foretinib; first compound 0.2 µM) | relative viability (PAC-1 + Foretinib; first compound 2 µM)
1 | NCI-H2009 | 1.1 | 1.13 | 1.13 | 1.15 | 0.816 | 0.715 | 0.698 | 0.696 | 1.04 | 1.05 | 0.979 | 0.964 | 0.645 | 0.614 | 0.582 | 0.669 | 1.2 | 1.23 | 1.21 | 1.19
2 | COR-L 105 | 0.736 | 1.22 | 1.04 | 1.24 | 0.318 | 0.323 | 0.383 | 0.374 | 0.873 | 0.915 | 0.774 | 0.64 | 0.756 | 0.669 | 0.615 | 0.756 | 0.991 | 1.16 | 1.25 | 1.31
3 | LXF-289 | 1.1 | 1.02 | 1.06 | 1.01 | 0.148 | 0.234 | 0.197 | 0.165 | 0.833 | 0.807 | 0.789 | 0.835 | 0.764 | 0.835 | 0.739 | 0.789 | 0.907 | 1.02 | 1 | 0.934
4 | HARA | 0.735 | 0.809 | 0.779 | 0.928 | 0.108 | 0.115 | 0.136 | 0.111 | 0.955 | 1.03 | 1.01 | 1.06 | 0.487 | 0.54 | 0.426 | 0.504 | 0.675 | 0.833 | 0.863 | 0.918
5 | NCI-H1975 | 0.597 | 0.678 | 0.621 | 0.642 | 0.76 | 0.824 | 0.748 | 0.729 | 0.919 | 0.916 | 0.944 | 1 | 0.826 | 0.62 | 0.704 | 0.842 | 0.933 | 0.947 | 1.01 | 0.932
6 | UMC-11 | 0.982 | 0.992 | 1.05 | 1.09 | 0.204 | 0.202 | 0.212 | 0.187 | 0.62 | 0.606 | 0.546 | 0.666 | 0.546 | 0.459 | 0.461 | 0.472 | 1.06 | 1.05 | 1.04 | 1.01
7 | NCI-H2023 | 0.576 | 0.592 | 0.654 | 0.673 | 0.404 | 0.355 | 0.382 | 0.347 | 0.629 | 0.635 | 0.534 | 0.586 | 0.429 | 0.404 | 0.333 | 0.357 | 0.824 | 0.789 | 0.911 | 0.773
8 | NCI-H23 | 0.529 | 0.692 | 0.741 | 0.764 | 0.323 | 0.384 | 0.366 | 0.383 | 0.481 | 0.396 | 0.489 | 0.535 | 0.629 | 0.493 | 0.589 | 0.65 | 1.08 | 0.954 | 0.844 | 0.965
9 | CAL-12T | 1.13 | 1.18 | 1.16 | 1.37 | 0.265 | 0.315 | 0.327 | 0.293 | 0.72 | 0.828 | 0.551 | 0.578 | 0.673 | 0.723 | 0.567 | 0.645 | 1.15 | 1.1 | 0.978 | 1.08
10 | LCLC-97TM1 |  | 0.215 | 0.281 | 0.192 | 0.22 | 0.286 | 0.217 | 0.225 |  | 0.252 | 0.358 | 0.298 | 0.436 | 0.536 | 0.453 | 0.449 | 0.989 | 1 | 0.945 | 0.955
11 | NCI-H661 | 0.581 | 0.56 | 0.671 | 0.687 | 0.364 | 0.332 | 0.348 | 0.331 | 0.927 | 1.06 |  | 1.06 | 0.631 | 0.747 | 0.785 | 0.577 | 1.05 | 0.963 | 0.967 | 0.957
12 | NCI-H1944 | 0.78 | 0.849 | 0.813 | 0.752 | 0.231 | 0.247 | 0.236 | 0.246 | 1.06 | 1.16 | 1.02 | 1.14 | 0.362 | 0.439 | 0.456 | 0.423 | 0.882 | 0.802 | 0.783 | 0.891
13 | NCI-H1915 | 1.04 | 1.08 | 0.991 | 1.02 | 0.421 | 0.436 | 0.411 | 0.428 | 0.892 | 0.899 | 0.85 | 0.857 | 0.603 | 0.621 | 0.592 | 0.586 | 1.09 | 1.08 | 1.02 | 1.08
14 | BEN | 1.04 | 1.1 | 1.09 | 0.965 | 0.621 | 0.541 | 0.511 | 0.466 | 0.92 | 0.882 | 0.804 | 0.832 | 0.303 | 0.264 | 0.291 | 0.289 | 0.68 | 0.651 | 0.589 | 0.678
15 | H3255 | 0.823 | 0.78 | 0.702 | 0.717 | 0.66 | 0.656 | 0.606 | 0.638 | 0.936 | 0.848 | 0.82 | 0.825 | 0.604 | 0.487 | 0.558 | 0.611 | 0.925 | 0.814 | 0.883 | 0.89
16 | NCI-H1437 | 0.953 | 0.932 | 0.906 | 0.716 | 0.395 | 0.391 | 0.378 | 0.378 | 0.883 | 0.913 | 0.85 | 0.68 | 0.893 | 0.867 | 0.82 | 0.762 | 1.19 | 1.23 | 1.3 | 1.1

Reference: the supplement of paper PMC10307832
